Reference: PubChem BioAssay (NCI)
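How tested: cells in 96-well plates exposed to compound for 48 hours at five concentrations. GI50 = concentration required for 50% inhibition of growth. The concentration for full growth arrest is given as TGI.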

Assays:
Test in all cases: DTP human tumour cell line panel, 48 h
K-562 leukemia = system: K-562 leukemia
A549 NSCLC = system: A549 NSCLC
UACC-62 melanoma = system: UACC-62 melanoma
HCT-116 colon = system: HCT-116 colon
SF-268 CNS = system: SF-268 CNS
HOP-92 NSCLC = system: HOP-92 NSCLC
OVCAR-3 ovarian = system: OVCAR-3 ovarian
LOX IMVI melanoma = system: LOX IMVI melanoma
MOLT-4 leukemia = system: MOLT-4 leukemia
HS 578T breast = system: HS 578T breast
A498 renal = system: A498 renal
PC-3 prostate = system: PC-3 prostate
TK-10 renal = system: TK-10 renal
SNB-19 CNS = system: SNB-19 CNS
NCI/ADR-RES ovarian = system: NCI/ADR-RES ovarian
UACC-257 melanoma = system: UACC-257 melanoma
MALME-3M melanoma = system: MALME-3M melanoma
COLO 205 colon = system: COLO 205 colon
SK-MEL-5 melanoma = system: SK-MEL-5 melanoma
HL-60(TB) leukemia = system: HL-60(TB) leukemia
IGROV1 ovarian = system: IGROV1 ovarian
SW-620 colon = system: SW-620 colon
SF-295 CNS = system: SF-295 CNS
SF-539 CNS = system: SF-539 CNS
M14 melanoma = system: M14 melanoma
NCI-H522 lung = system: NCI-H522 lung
786-0 renal = system: 786-0 renal
KM12 colon = system: KM12 colon
BT-549 breast = system: BT-549 breast
SK-OV-3 ovarian = system: SK-OV-3 ovarian

SMILES: O=C(Nc1ccc(Cl)c(C(F)(F)F)c1)N1CCN(c2cc(-c3cn(-c4ccccc4)nc3-c3cccc(O)c3)ccn2)CC1
- GI50 (K-562 leukemia): 2.13 µM
- TGI (K-562 leukemia): > 22 µM
- GI50 (A549 NSCLC): 4.34 µM
- TGI (A549 NSCLC): > 22 µM
- GI50 (UACC-62 melanoma): 2.68 µM
- TGI (UACC-62 melanoma): 5.77 µM
- GI50 (HCT-116 colon): 1.86 µM
- TGI (HCT-116 colon): > 22 µM
- GI50 (SF-268 CNS): 3.3 µM
- TGI (SF-268 CNS): > 22 µM
- GI50 (HOP-92 NSCLC): 2.59 µM
- TGI (HOP-92 NSCLC): 15.9 µM
- GI50 (OVCAR-3 ovarian): 1.76 µM
- TGI (OVCAR-3 ovarian): 11.5 µM
- GI50 (LOX IMVI melanoma): 2.99 µM
- TGI (LOX IMVI melanoma): 6.52 µM
- GI50 (MOLT-4 leukemia): 0.93 µM
- TGI (MOLT-4 leukemia): 7.58 µM
- GI50 (HS 578T breast): 3.39 µM
- TGI (HS 578T breast): 15.8 µM
- GI50 (A498 renal): 4.72 µM
- TGI (A498 renal): 21 µM
- GI50 (PC-3 prostate): 0.967 µM
- TGI (PC-3 prostate): 17 µM
- GI50 (TK-10 renal): 5.92 µM
- TGI (TK-10 renal): > 22 µM
- GI50 (SNB-19 CNS): 4.06 µM
- TGI (SNB-19 CNS): > 22 µM
- GI50 (NCI/ADR-RES ovarian): 2.91 µM
- TGI (NCI/ADR-RES ovarian): 11.9 µM
- GI50 (UACC-257 melanoma): 4.77 µM
- TGI (UACC-257 melanoma): 14.3 µM
- GI50 (MALME-3M melanoma): 3.3 µM
- TGI (MALME-3M melanoma): 8.95 µM
- GI50 (COLO 205 colon): 3.01 µM
- TGI (COLO 205 colon): 9.39 µM
- GI50 (SK-MEL-5 melanoma): 2.58 µM
- TGI (SK-MEL-5 melanoma): 5.45 µM
- GI50 (HL-60(TB) leukemia): 2.34 µM
- TGI (HL-60(TB) leukemia): 8.58 µM
- GI50 (IGROV1 ovarian): 5.11 µM
- TGI (IGROV1 ovarian): > 22 µM
- GI50 (SW-620 colon): 4.78 µM
- TGI (SW-620 colon): > 22 µM
- GI50 (SF-295 CNS): 1.5 µM
- TGI (SF-295 CNS): 7.25 µM
- GI50 (SF-539 CNS): 4.21 µM
- TGI (SF-539 CNS): > 22 µM
- GI50 (M14 melanoma): 3.03 µM
- TGI (M14 melanoma): 12.5 µM
- GI50 (NCI-H522 lung): 2.77 µM
- TGI (NCI-H522 lung): 9.26 µM
- GI50 (786-0 renal): 4.02 µM
- TGI (786-0 renal): > 22 µM
- GI50 (KM12 colon): 3.34 µM
- TGI (KM12 colon): 15.2 µM
- GI50 (BT-549 breast): 3.33 µM
- TGI (BT-549 breast): 7.99 µM
- GI50 (SK-OV-3 ovarian): 6.43 µM
